The target of assay [1] is T1, Muscarinic acetylcholine receptor (Homo sapiens) (UniProt P20309+P08173+P11229+P08172+P08912). The assay is described as follows: Tested in vitro for agonistic activity of compound towards muscarinic receptor in the concentration range of 1xe-6 to 1xe-4 M of guinea pig ileum; Responce varied in the range 17- 40%. The assay is classed as functional, tissue-based. Conditions: Cavia porcellus, filed as partial agonist, target entry is the homologue from another species.

For assay [2], the system named is Rattus norvegicus. The assay is described as follows: Ganglionic muscarinic activity was determined by the changes in mean arterial blood pressure of the pithed rat treated with to produce a half-maximal pressure response up i.v. administration. The assay is classed as functional. The settings on record: iv.
Assay [3] in a line: Equipotent molar ratio relative to carbachol for nicotininc activity in frog was determined. The assay is classed as functional.
Assay [4] concerns the target T1, Muscarinic acetylcholine receptor (Homo sapiens). The assay is described as follows: Tested in vitro for agonistic activity of compound towards muscarinic receptor in the concentration range of 1xe-6 to 1xe-4 M of guinea pig ileum; Inactive. The assay is classed as functional, tissue-based. Conditions: Cavia porcellus, target entry is the homologue from another species.

In assay [5] the test system is Rattus norvegicus. Description: Ganglionic muscarinic activity was determined by the changes in mean arterial blood pressure of the pithed rat treated with to produce a half-maximal pressure response up i.v. administration; Inactive when assayed a dose range of 1-10 umol/Kg. The assay is classed as functional, organism-based.

Active and inactive are the calls of the source.

As a reminder, the ED50 is the dose that gives a 50% effect, or the effect in half of the subjects. As to `C[N+](C)(C)CC#CCOC(=O)Nc1cccc(Br)c1`, in assay [1], the Max respose entry is “Partial agonist”. For the same compound, the ED50 in the assay with Rattus norvegicus [2] amounted to 0.7 µmol/kg. For the same compound, in assay [3], the Ratio was 4.
Regarding `C[S+](C)CC#CCOC(=O)Nc1ccc(Br)cc1.[O-][Cl+3]([O-])([O-])[O-]`, in assay [4], the Max respose entry was “inactive”. In the assay on Rattus norvegicus [2], this compound registered an ED50 of 1.56 µmol/kg.
In turn, `C[N+](C)(C)CC#CCOC(=O)Nc1cccc(Cl)c1` gave an ED50 in the assay with Rattus norvegicus [2] of 0.59 µmol/kg.
Take `C[S+](C)CC#CCOC(=O)Nc1cccc(Br)c1.[O-][Cl+3]([O-])([O-])[O-]`: in assay [4], the Max respose entry is “inactive”. This compound also returned an ED50 in the assay with Rattus norvegicus [2] of 1.47 µmol/kg.
For `C[S+](C)CC#CCOC(=O)Nc1ccc(Cl)cc1.[O-][Cl+3]([O-])([O-])[O-]`, in that order: “inactive” and 1.52 µmol/kg.
As for `CN(C)CC#CCOC(=O)Nc1cccc(Br)c1`, the ED50 result in the assay on Rattus norvegicus [5] was “Inactive when assayed a dose range of 1-10 umol/Kg”.
Take `CN(C)CC#CCOC(=O)Nc1ccc(Br)cc1`: the ED50 result in the assay on Rattus norvegicus [5] is “Inactive when assayed a dose range of 1-10 umol/Kg”.
As to `C[N+](C)(C)CC#CCOC(=O)Nc1ccc(Br)cc1`, the Max respose result in assay [1] is “Partial agonist”. For the same compound, in the assay on Rattus norvegicus [2], the 50% effect level (ED50) was put at a dose of 0.22 µmol/kg. Further, the Ratio in assay [3] amounted to 3.7.
Regarding `C[S+](C)CC#CCOC(=O)Nc1cccc(Cl)c1.[O-][Cl+3]([O-])([O-])[O-]`, the Max respose result in assay [4] was “inactive”. Further, the ED50 with Rattus norvegicus [2] is 1.49 µmol/kg.

The values above are taken from ChEMBL document CHEMBL1124530, “Dimethylsulfonium analogues of the muscarinic agent McN-A-343: [4-[[N-(3- or 4-halophenyl)carbamoyl]oxy]-2-butynyl] dimethylsulfonium perchlorates” (1989).
